Earlier results, collected in patent US11278550B2, “Compositions and methods for the treatment of Prader-Willi syndrome” (Duke University, priority 2016, dated 2022).

Biological target: T1, G9a (Mus musculus, UniProt Q9Z148)
T1 construct: from tissue
T1 sequence (Q9Z148 1-1263): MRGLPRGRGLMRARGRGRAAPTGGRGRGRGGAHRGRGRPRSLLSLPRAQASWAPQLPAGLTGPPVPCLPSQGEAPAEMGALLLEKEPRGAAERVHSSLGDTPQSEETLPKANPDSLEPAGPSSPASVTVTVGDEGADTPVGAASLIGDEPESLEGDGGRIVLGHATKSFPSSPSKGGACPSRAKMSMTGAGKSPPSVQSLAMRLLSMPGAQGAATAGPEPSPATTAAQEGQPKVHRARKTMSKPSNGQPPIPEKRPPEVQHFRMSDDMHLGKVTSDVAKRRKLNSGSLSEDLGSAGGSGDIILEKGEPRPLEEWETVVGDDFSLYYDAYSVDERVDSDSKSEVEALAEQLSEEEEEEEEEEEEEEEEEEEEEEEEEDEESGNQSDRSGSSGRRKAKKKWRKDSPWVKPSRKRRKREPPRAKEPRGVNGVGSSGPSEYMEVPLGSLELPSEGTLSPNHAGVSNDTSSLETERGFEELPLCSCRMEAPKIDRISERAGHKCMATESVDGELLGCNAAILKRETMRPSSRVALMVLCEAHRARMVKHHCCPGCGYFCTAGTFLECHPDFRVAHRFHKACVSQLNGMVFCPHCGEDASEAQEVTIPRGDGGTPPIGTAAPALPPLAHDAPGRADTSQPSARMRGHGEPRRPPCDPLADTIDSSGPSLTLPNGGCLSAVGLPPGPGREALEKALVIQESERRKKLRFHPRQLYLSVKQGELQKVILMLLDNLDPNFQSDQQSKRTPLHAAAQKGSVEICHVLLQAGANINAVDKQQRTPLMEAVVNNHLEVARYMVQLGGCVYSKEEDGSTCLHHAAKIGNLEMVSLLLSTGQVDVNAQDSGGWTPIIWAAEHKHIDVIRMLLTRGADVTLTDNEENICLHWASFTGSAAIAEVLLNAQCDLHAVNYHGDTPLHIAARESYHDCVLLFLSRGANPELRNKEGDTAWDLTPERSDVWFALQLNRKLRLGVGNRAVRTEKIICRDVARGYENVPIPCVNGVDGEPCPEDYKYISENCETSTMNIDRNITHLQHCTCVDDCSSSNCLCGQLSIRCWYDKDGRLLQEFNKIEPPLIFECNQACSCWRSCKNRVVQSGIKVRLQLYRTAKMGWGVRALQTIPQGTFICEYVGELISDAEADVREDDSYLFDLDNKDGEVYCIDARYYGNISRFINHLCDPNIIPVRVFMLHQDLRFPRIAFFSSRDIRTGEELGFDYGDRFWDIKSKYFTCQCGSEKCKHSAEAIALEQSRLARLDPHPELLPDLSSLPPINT
Conditions: single dose of 5 mg/kg i.p.; cited from earlier work

COc1cc2c(NC3CCN(C(C)C)CC3)nc(N3CCC(F)(F)CC3)nc2cc1OCCCN1CCCC1 [UNC0642]
inhibition of G9a activity in adult mice: sufficient to inhibit G9a activity
